Laboratory results published in ChEMBL document CHEMBL3871307, “Discovery of Chromane Propionic Acid Analogues as Selective Agonists of GPR120 with in Vivo Activity in Rodents” (ACS Med Chem Lett, 2017).
Calls of active or inactive are those of the source. The calls are words filed in the database; no cut-off is given here.

Legend:
[1] = biological target: Free fatty acid receptor 1 (Homo sapiens, UniProt O14842); assay: Agonist activity at human GPR40 expressed in HEK293 cells assessed as increase in IP1 accumulation after 60 mins by HTRF assay; format: functional, cell-based
[2] = biological target: T1, Free fatty acid receptor 4 (Homo sapiens, UniProt Q5NUL3); assay: Agonist activity at human GPR120 short isoform expressed in CHOK1 cells assessed as increase in IP1 accumulation after 60 mins by HTRF assay; format: functional, cell-based, CHO-K1
T1 sequence (Q5NUL3 whole entry): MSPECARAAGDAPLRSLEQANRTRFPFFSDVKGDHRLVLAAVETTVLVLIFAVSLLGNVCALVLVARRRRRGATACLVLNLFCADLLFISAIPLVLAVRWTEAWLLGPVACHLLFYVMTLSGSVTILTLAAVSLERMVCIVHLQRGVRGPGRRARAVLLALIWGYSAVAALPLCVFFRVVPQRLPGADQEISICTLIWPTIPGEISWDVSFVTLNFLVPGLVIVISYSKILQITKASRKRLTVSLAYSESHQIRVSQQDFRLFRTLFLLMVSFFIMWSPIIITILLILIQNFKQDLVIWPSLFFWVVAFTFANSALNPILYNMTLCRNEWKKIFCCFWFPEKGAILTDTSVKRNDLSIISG

[3] = biological target: T1, Free fatty acid receptor 4; assay: Agonist activity at human GPR120 short isoform expressed in CHOK1 cells assessed as beta-arrestin recruitment after 90 mins by luminescence assay; format: cell-based, CHO-K1
[4] = biological target: T2, Free fatty acid receptor 4 (Homo sapiens) (UniProt Q5NUL3); assay: Agonist activity at human GPR120 short isoform expressed in CHOK1 cells assessed as increase in IP1 accumulation at 10 uM after 60 mins by HTRF assay; format: functional, cell-based; conditions: CHO-K1
T2 sequence (whole entry): T1 sequence (Q5NUL3 whole entry)

[5] = Clearance in rat plasma at 0.1 mg/kg administered as iv casette dose by LC/MS/MS analysis; format: ADME, organism-based
[6] = Volume of distribution at steady state in rat plasma at 0.1 mg/kg administered as iv casette dose by LC/MS/MS analysis; format: ADME, organism-based; conditions: read-out: Vdss
[7] = Protein binding in rat plasma at 0.1 mg/kg administered as iv casette dose by LC/MS/MS analysis; format: ADME, organism-based; conditions: read-out: PPB (converted)
[8] = Intrinsic clearance in rat plasma at 0.1 mg/kg administered as iv casette dose by LC/MS/MS analysis; format: ADME, organism-based; conditions: in vivo
[9] = Terminal half life in rat plasma at 0.1 mg/kg administered as iv casette dose by LC/MS/MS analysis; format: ADME, organism-based; conditions: read-out: beta t1/2 (converted)
[10] = Plasma concentration in C57BL/6 transverse aortic constriction mouse at 30 mg/kg, po via gavage measured at 3 hrs; format: ADME, organism-based; conditions: C57BL/6, mouse
[11] = test system: Mus musculus; assay: Glucose lowering effect in C57BL/6 transverse aortic constriction mouse assessed as reduction in blood glucose at 30 mg/kg, po pretreated for 60 mins as single dose via gavage followed by dextrose challenge measured up to 120 mins post glucose challenge by OGTT; format: functional, organism-based
[12] = test system: Mus musculus; assay: Glucose lowering effect in C57BL/6 transverse aortic constriction mouse assessed as reduction in blood glucose at 100 mg/kg, po pretreated for 60 mins as single dose via gavage followed by dextrose challenge measured up to 120 mins post glucose challenge by OGTT; format: functional, organism-based
[13] = Plasma concentration in C57BL/6 transverse aortic constriction mouse at 100 mg/kg, po via gavage measured at 3 hrs; format: ADME, organism-based; conditions: C57BL/6, mouse
[14] = biological target: T3, Free fatty acid receptor 4 (Mus musculus) (UniProt Q7TMA4); assay: (§1) Agonist activity at mouse GPR120 expressed in CHOK1 cells assessed as increase in IP1 accumulation after 60 mins by HTRF assay; format: functional, cell-based; conditions: CHO-K1
T3 sequence (whole entry): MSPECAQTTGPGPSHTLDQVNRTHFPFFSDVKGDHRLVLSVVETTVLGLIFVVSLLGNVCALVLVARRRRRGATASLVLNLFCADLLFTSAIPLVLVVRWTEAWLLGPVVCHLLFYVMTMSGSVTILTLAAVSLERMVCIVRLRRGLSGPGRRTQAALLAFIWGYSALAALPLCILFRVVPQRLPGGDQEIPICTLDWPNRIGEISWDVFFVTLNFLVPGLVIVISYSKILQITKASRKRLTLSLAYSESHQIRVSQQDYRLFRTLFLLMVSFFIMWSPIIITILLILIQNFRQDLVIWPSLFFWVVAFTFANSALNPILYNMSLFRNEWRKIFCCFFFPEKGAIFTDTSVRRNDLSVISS

[15] = Plasma concentration in GPR120 knockout C57BL/6 transverse aortic constriction mouse at 150 mg/kg, po measured at 3 hrs; format: ADME, organism-based; conditions: C57BL/6, mouse
[16] = biological target: Free fatty acid receptor 1 (Mus musculus, UniProt Q76JU9); assay: Agonist activity at mouse GPR40 assessed as increase in IP1 accumulation after 60 mins by HTRF assay; format: functional
[17] = Plasma concentration in wild type C57BL/6 transverse aortic constriction mouse harboring GPR120 at 150 mg/kg, po measured at 3 hrs; format: ADME, organism-based; conditions: C57BL/6, mouse
[18] = test system: Mus musculus; assay: In vivo agonist activity at GPR120 in wild type C57BL/6 transverse aortic constriction mouse assessed as glucose lowering effect at 150 mg/kg, po via gavage pretreated for 60 mins followed by dextrose challenge measured up to 120 mins post glucose challenge by OGTT; format: functional, organism-based
[19] = biological target: T4, Free fatty acid receptor 4 (Mus musculus, UniProt Q7TMA4); assay: Agonist activity at mouse GPR120 expressed in human U2OS cells assessed as beta-arrestin recruitment after 90 mins by luminescence assay; format: cell-based
T4 sequence (Q7TMA4 whole entry): T3 sequence (whole entry)

[20] = biological target: T4, Free fatty acid receptor 4; assay: as §1; format: functional, cell-based, CHO-K1

Chain of Free fatty acid receptor 1 (Homo sapiens, UniProt O14842) (O14842 whole entry, canonical isoform): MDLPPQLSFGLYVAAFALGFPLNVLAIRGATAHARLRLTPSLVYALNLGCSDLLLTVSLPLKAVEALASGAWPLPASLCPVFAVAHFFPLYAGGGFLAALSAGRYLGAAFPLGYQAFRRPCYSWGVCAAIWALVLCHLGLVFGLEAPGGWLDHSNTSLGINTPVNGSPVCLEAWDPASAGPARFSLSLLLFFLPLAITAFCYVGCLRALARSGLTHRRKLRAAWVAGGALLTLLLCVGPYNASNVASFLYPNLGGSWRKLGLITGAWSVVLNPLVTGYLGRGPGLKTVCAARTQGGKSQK
Chain of Free fatty acid receptor 1 (Mus musculus, UniProt Q76JU9) (Q76JU9 whole entry): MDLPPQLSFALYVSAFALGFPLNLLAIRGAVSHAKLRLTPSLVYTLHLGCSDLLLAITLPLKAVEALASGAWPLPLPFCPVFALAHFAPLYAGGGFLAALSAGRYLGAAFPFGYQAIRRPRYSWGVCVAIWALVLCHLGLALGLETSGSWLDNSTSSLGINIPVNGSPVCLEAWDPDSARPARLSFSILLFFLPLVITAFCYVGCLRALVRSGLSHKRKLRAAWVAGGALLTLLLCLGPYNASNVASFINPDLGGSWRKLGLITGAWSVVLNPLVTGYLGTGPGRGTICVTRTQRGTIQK

Compound | EC50 [1] [µM] | EC50 [2] [nM] | EC50 [3] [nM] | Activity [4] [%] | further results
COc1cc(OC(F)(F)F)cc(-c2ccc3c(c2)CC[C@H](CCc2nnn[nH]2)O3)c1F | > 10 | 130 | 150 | 45 | 
O=C(O)CC[C@H]1CCc2cc(-c3cc(OC4CCC4)ccc3F)ccc2O1 | 3.6 | 28 | 10 | > 50 | 
O=C(O)CC[C@H]1CCc2cc(-c3cc(OC4CCC4)ncc3F)ccc2O1 | 2 | 250 | 230 | > 50 | 
COc1cc(OC2CCC2)nc(-c2ccc3c(c2)CC[C@H](CCC(=O)O)O3)c1F | > 10 | 15 | 6.2 | > 50 | 
CO[C@H]1C[C@H](Oc2cc(F)c(F)c(-c3ccc4c(c3)CC[C@H]([C@@H]3C[C@H]3C(=O)O)O4)c2)C1 | > 10 | 45 | 17 | > 50 | concentration at 3 h [10]: 37.4 µM; Activity [11]: Active
COc1cc(OC2CCC2)nc(-c2ccc3c(c2)CC[C@H]([C@@H]2C[C@H]2C(=O)O)O3)c1F | > 10 | 18 | 7.8 | > 50 | 
O=C(O)[C@H]1C[C@@H]1[C@H]1CCc2cc(-c3cc(OC(F)(F)F)ccc3F)ccc2O1 | > 10 | 320 | 130 | > 50 | 
COc1cc(OC2CCC2)cc(-c2ccc3c(c2)CC[C@H]([C@@H]2C[C@H]2C(=O)O)O3)c1F | > 10 | 25 | 8 | > 50 | 
Fc1ccc(OC(F)(F)F)cc1-c1ccc2c(c1)CC[C@H](CCc1nnn[nH]1)O2 | > 10 | 330 | 890 | 17 | 
CO[C@H]1C[C@H](Oc2cc(F)c(F)c(-c3ccc4c(c3)CC[C@H](CCc3nnn[nH]3)O4)c2)C1 | > 10 | 240 | 170 | 24 | 
Fc1ccc(OC2CCC2)cc1-c1ccc2c(c1)CC[C@H](CCc1nnn[nH]1)O2 | > 10 | 220 | 84 | 44 | Activity [12]: Active; concentration at 3 h [13]: 40.6 µM; Activity [14]: Active
COc1cc(O[C@H]2C[C@H](OC)C2)cc(-c2ccc3c(c2)CC[C@H]([C@@H]2C[C@H]2C(=O)O)O3)c1F | > 10 | 55 | 78 | > 50 | 
COc1cc(OC2CC2)cc(-c2ccc3c(c2)CC[C@H](CCc2nnn[nH]2)O3)c1F | > 10 | 51 | 32 | > 50 | 
O=C(O)CC[C@H]1CCc2cc(-c3nc(OC4CCC4)ccc3F)ccc2O1 | > 10 | 30 | 21 | > 50 | clearance [5]: 9.1 mL/min/kg; Vd [6]: 0.23 L/kg; fraction unbound [7]: 0.0023; CL [8]: 4500 mL/min/kg; half-life [9]: 44.4 min
O=C(O)[C@@H]1C[C@H]1[C@H]1CCc2cc(-c3cc(OC(F)(F)F)ccc3F)ccc2O1 | > 10 | 69 | 33 | > 50 | 
COc1cc(O[C@H]2C[C@H](OC)C2)nc(-c2ccc3c(c2)CC[C@H](CCC(=O)O)O3)c1F | > 10 | 14 | 5 | > 50 | clearance [5]: 3.4 mL/min/kg; concentration at 3 h [15]: 27.6 µM; EC50 [16]: > 10 µM; concentration at 3 h [17]: 33.5 µM; Vd [6]: 0.49 L/kg; Activity [18]: Active; EC50 [19]: 4.6 nM; fraction unbound [7]: 0.0032; CL [8]: 760 mL/min/kg; half-life [9]: 144 min; EC50 [20]: 5.6 nM
COc1cc(O[C@H]2C[C@H](OC)C2)cc(-c2ccc3c(c2)CC[C@H](CCc2nnn[nH]2)O3)c1F | > 10 | 53 | 43 | > 50 | 

Second part, led by results:

EC50 [1] [µM] | EC50 [2] [nM] | EC50 [3] [nM] | Activity [4] [%] | Compound | further results
> 10 | 37 | 13 | > 50 | COc1cc(Oc2ncc(C)s2)cc(-c2ccc3c(c2)CC[C@H](CCC(=O)O)O3)c1F | clearance [5]: 1.6 mL/min/kg; Vd [6]: 0.15 L/kg; fraction unbound [7]: 0.0007; CL [8]: 3600 mL/min/kg; half-life [9]: 72 min
> 10 | 180 | 42 | > 50 | O=C(O)CC[C@@H]1CCc2cc(-c3cc(OC(F)(F)F)ccc3F)ccc2O1 | 
> 10 | 21 | 13 | > 50 | O=C(O)CC[C@H]1CCc2cc(-c3cc(OC4CCC4)cc(F)c3F)ccc2O1 | clearance [5]: 5.4 mL/min/kg; Vd [6]: 0.45 L/kg; fraction unbound [7]: 0.0007; CL [8]: 8700 mL/min/kg; half-life [9]: 78 min
> 10 | 15 | 9 | > 50 | COc1cc(OC2CCC2)cc(-c2ccc3c(c2)CC[C@H](CCC(=O)O)O3)c1F | 
> 10 | 14 | 5.6 | > 50 | Cc1cnc(Oc2cc(Cl)c(F)c(-c3ccc4c(c3)CC[C@H](CCC(=O)O)O4)c2)s1 | clearance [5]: 1.6 mL/min/kg; Vd [6]: 0.14 L/kg; fraction unbound [7]: 0.0003; CL [8]: 6200 mL/min/kg; half-life [9]: 55.8 min
> 10 | 40 | 8.3 | > 50 | O=C(O)CC[C@H]1CCc2cc(-c3cc(OC4CCC4)cc(Cl)c3F)ccc2O1 | 
2.1 | 170 | 17 | > 50 | O=C(O)CC[C@H]1CCc2cc(-c3cc(OC(F)(F)F)ccc3F)ccc2O1 | clearance [5]: 9.5 mL/min/kg; Vd [6]: 0.64 L/kg; fraction unbound [7]: 0.0016; CL [8]: 10500 mL/min/kg; half-life [9]: 78 min
2.2 | 72 | 17 | > 50 | O=C(O)CC[C@H]1CCc2cc(-c3cc(OC(F)(F)F)cc(Cl)c3F)ccc2O1 | 
> 10 | 79 | 140 | > 50 | O=C(O)CC[C@H]1CCc2cc(-c3cc(OC4CCC4)cnc3F)ccc2O1 | 
4.4 | 25 | 11 | > 50 | COc1cc(OC(F)(F)F)cc(-c2ccc3c(c2)CC[C@H](CCC(=O)O)O3)c1F | 
